These results are taken from patent US10364247B2, “Preparation and use of novel protein kinase inhibitors” (Ruijin Hospital Affiliated to Shanghai Jiao Tong University …, priority 2015, dated 2019).

What all share (type): cell-based, murine
The target in one assay is T1, BaF3-BCR/ABL (Homo sapiens, UniProt P00519).
T1 construct: fused on or other part: P11274 (Breakpoint cluster region protein)
Briefly: Antiproliferative activity, kinase-dependent Ba/F3 cells (MTT/MTS). As to conditions: 48 hours, cell viability, read-out: BCR/ABL IC50. As for the experimental part:
(§1) Following up on the kinome data, the ability of compounds disclosed in the present invention to inhibit proliferation of cells that are dependent on selected protein kinases was tested. […] In addition, compounds were assayed to measure their capacity to inhibit TIE1, LYN, EML4-ALK, INSR and HCK kinases.
(§2) The murine cell line used is the BaF/3 cell line transformed with BCR/ABL cDNA (BaF/3-p210) or BCR/ABL-T315I mutant (Ba/F3-p210-T315I). These cells are maintained in RPMI/10% fetal calf serum (RPMI/FCS) supplemented with penicillin 50 μg/mL, streptomycin 50 μg/mL and L-glutamine […]. Untransformed BaF/3 cells (Wt-BaF/3) are similarly maintained with the addition of 15% of WEHI conditioned medium as a source of IL3.
(§3) Cells were seeded at a density of 20,000 cells/well into 96-well plates.
(§4) The background control wells to which media with no cells added and the vehicle control wells were included on each plate in triplicate. Cell viability was determined using MTT (Sigma, St. Louis, Mo., USA) and MTS (Promega, Madison, Wis., USA), according to the manufacturer's instructions. Results were analyzed using GraphPad Prism 5.0 (GraphPad Software, San Diego, Calif.) and IC50 values were calculated from cell viability dose-response curves and defined as the concentration of compound needed to reduce cell viability to 50% of a vehicle control (DMSO) (Table 3).

The next assay has as its target T2, BaF3-BCR/ABL-T315I (Homo sapiens, UniProt P00519, T315I, cells depend on it).
T2 construct: fused on or other part: P11274 (Breakpoint cluster region protein)
The assay is described as above. As to conditions: 48 hours, cell viability, read-out: BCR/ABL T315I IC50. As for the experimental part:
as §1, §2, §3, §4

Another assay has as its system BaF3-KRASD12. In words: Oncogenic RAS dependent cell proliferation (CellTiter Glo). As to conditions: Mus musculus, BaF3-KRASD12 cells, 48 hours, read-out: KRas-BaF3 IC50. As for the experimental part: (§5) The BaF/3 cell line transformed with oncogenic NRAS or KRAS (BaF/3-NRASD12 or BaF/3-KRASD12) and the parental BaF/3 cells were used to measure the abilities of compounds of the invention to suppress RAS transformation (Table 5). Cells were seeded at a density of 5000 cells/well into 96-well plates. […] The background control wells to which media with no cells added and the vehicle control wells were included on each plate in triplicate. Cell viability was determined using CellTiter Glo Assay (Promega) according to manufacture's instruction with a minor modification of diluting 1 part CellTiter Glo reagent to 4 parts phosphate buffered saline (PBS) before use. The luminescence value was read out by an Envision (PerkinElmer).
In general terms: In ATP-based viability assays light output follows the ATP content of the culture.

The next assay concerns BaF3-NRASD12. Described as above. As to conditions: Mus musculus, BaF3-NRASD12 cells, 48 hours, read-out: NRas-BaF3 IC50. As for the experimental part: as §5
A further assay deals with T3, BaF3-TEL-TIE1 (Homo sapiens, UniProt P35590).
T3 construct: fused on or other part: P41212 (Transcription factor ETV6)
In words: Antiproliferative activity, kinase-dependent Ba/F3 cells (MTT/MTS). As to conditions: 48 hours, cell viability, read-out: tel-TIE1 IC50. The procedure: as §1, §2, §3, §4
(§6) Cell proliferation assays of compounds of the invention against TIE1, LYN, EML4-ALK, INSR and Hck were conducted using identical methods as described above for BCR/ABL, except that BaF3-TEL-TIE1, BaF3-TEL-LYN, BaF3-EML4-ALK, BaF3-TEL-INSR, and BaF3-TEL-HCK are used instead of BaF3-BCR/ABL (Table 3 and 4).

Another assay deals with T4, BaF3-TEL-LYN (Homo sapiens, UniProt P07948).
T4 construct: fused on or other part: P41212 (Transcription factor ETV6)
The assay is described as above. As to conditions: 48 hours, cell viability, read-out: tel-LYN IC50. As for the experimental part: as §1, §2, §3, §4, §6

Another assay has as its target T5, BaF3-EML4-ALK (Homo sapiens, UniProt Q9UM73).
T5 construct: fused on or other part: Q9HC35 (Echinoderm microtubule-associated protein-like 4)
Described as above. As to conditions: 48 hours, cell viability, read-out: EML4-ALK IC50. The procedure:
as §1, §2, §3, §4, §6

A further assay has as its system Wt-BaF3. In words: Parental Ba/F3 cell proliferation (CellTiter Glo). As to conditions: Mus musculus, parental BaF/3 cells, 48 hours. The procedure:
as §2, §5

SMILES strings stand for the structures.

T4 sequence (P07948 whole entry, change not shown, the tested form may be a part): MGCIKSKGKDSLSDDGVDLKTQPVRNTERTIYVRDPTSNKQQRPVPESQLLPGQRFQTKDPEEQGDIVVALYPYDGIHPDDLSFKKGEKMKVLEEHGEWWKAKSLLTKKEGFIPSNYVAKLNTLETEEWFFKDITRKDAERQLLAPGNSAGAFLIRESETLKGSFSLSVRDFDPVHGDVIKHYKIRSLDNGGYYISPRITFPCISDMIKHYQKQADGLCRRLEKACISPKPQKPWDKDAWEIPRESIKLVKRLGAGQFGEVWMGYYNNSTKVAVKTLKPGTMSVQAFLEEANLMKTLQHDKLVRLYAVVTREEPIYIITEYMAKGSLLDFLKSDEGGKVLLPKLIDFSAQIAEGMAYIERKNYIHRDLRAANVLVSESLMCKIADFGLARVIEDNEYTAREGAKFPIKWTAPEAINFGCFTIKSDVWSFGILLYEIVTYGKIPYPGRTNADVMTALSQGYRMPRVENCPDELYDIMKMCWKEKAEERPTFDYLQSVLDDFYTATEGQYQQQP
T3 sequence (P35590 whole entry, change not shown, the tested form may be a part): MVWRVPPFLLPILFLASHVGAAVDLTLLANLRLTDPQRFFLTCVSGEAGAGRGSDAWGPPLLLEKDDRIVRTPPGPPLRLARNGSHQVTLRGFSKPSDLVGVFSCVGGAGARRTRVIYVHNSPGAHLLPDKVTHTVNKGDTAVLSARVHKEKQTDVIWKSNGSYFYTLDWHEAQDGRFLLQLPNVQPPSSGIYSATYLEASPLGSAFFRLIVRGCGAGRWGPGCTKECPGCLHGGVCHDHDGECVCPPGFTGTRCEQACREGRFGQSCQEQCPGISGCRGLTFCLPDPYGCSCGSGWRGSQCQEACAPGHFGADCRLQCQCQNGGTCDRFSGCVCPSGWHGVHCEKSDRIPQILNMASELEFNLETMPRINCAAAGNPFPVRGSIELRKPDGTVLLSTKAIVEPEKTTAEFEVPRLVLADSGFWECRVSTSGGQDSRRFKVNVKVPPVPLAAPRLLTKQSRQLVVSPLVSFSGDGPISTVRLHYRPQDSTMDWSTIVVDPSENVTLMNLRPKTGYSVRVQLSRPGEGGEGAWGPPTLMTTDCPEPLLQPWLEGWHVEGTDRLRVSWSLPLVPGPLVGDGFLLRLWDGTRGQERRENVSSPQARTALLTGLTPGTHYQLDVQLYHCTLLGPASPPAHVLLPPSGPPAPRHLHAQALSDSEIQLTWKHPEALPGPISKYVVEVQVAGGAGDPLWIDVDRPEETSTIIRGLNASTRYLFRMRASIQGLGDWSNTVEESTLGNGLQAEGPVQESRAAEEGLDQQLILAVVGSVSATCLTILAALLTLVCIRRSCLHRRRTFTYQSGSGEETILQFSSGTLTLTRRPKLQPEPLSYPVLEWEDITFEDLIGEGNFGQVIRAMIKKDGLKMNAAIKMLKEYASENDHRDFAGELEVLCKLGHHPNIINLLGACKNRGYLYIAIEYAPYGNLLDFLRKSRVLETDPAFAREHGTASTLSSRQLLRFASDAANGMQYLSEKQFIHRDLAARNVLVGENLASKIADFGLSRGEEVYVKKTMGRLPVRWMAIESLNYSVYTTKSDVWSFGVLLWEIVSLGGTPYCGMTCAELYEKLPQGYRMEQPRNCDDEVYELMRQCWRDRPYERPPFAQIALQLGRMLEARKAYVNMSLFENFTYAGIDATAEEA
T5 sequence (Q9UM73 whole entry, change not shown, the tested form may be a part): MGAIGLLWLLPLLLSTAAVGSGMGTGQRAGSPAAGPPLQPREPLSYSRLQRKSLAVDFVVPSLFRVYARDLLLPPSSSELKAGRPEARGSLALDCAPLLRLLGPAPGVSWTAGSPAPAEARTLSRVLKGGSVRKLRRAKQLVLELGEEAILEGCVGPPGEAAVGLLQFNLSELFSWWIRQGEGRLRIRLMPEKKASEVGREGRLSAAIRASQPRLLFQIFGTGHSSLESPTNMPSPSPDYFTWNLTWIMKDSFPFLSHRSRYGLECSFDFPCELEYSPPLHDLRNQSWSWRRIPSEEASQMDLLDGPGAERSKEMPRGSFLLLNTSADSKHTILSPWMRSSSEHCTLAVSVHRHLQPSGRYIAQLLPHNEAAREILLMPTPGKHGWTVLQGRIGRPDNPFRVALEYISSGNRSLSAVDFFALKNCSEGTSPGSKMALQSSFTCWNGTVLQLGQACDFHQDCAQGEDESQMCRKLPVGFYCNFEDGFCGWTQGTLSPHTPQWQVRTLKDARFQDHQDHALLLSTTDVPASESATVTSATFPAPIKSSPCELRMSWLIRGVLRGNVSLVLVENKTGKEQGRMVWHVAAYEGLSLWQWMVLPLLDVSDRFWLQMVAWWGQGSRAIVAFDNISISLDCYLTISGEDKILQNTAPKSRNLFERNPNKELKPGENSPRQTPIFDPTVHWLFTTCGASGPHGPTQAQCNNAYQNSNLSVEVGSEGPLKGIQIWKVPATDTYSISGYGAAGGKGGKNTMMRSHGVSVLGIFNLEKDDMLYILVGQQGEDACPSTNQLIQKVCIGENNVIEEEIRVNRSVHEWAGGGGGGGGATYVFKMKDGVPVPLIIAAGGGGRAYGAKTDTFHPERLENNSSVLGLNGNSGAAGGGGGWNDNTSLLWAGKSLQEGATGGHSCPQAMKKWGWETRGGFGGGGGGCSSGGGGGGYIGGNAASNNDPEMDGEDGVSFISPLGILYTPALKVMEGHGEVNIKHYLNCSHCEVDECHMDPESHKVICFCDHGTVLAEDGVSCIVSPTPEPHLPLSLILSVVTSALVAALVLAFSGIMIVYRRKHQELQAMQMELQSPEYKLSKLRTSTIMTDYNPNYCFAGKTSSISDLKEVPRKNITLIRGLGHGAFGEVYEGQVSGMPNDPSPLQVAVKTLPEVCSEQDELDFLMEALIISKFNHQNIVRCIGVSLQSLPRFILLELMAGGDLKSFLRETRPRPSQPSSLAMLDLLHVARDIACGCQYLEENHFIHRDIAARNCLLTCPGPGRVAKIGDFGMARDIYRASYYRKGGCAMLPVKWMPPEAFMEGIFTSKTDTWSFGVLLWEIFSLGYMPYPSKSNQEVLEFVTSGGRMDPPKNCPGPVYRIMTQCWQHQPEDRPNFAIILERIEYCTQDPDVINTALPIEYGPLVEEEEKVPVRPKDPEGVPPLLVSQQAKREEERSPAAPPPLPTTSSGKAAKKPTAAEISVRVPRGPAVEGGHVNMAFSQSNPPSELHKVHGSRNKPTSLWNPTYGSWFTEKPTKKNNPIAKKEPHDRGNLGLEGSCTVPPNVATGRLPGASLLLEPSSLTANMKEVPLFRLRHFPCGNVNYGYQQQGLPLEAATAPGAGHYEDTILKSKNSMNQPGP

With `Cc1ccc(NC(=O)c2cccc(C(F)(F)F)c2)cc1N1Cc2cnc(NC3CC3)nc2N(C)C1` [IA-4, N-(3-(7-(cyclopropylamino)-1-methyl-1,4-dihydropyrimido[4,5-d]pyrimidin-3(2H)-yl)-4-methylphenyl)-3-(trifluoromethyl)benzamide], the GI50 on BaF3-BCR/ABL came out at 0.956 µM; at BaF3-BCR/ABL-T315I it was 9.72 µM; on BaF3-TEL-TIE1 it was 4.97 µM; at BaF3-TEL-LYN it was 1.32 µM; at BaF3-EML4-ALK, 6.79 µM. Also, the IC50 in the assay with BaF3-KRASD12 was 8.33 µM; in the assay on BaF3-NRASD12, 9.56 µM; with Wt-BaF3, 11.3 µM.
With `Cc1ccc(Nc2ncc3c(n2)N(C)CN(c2cccc(NC(=O)c4cccc(C(F)(F)F)c4)c2)C3)cn1` [IC-5, N-(3-(1-methyl-7-((6-methylpyridin-3-yl)amino)-1,4-dihydropyrimido[4,5-d]pyrimidin-3(2H)-yl)phenyl)-3-(trifluoromethyl)benzamide], the GI50 on BaF3-BCR/ABL was 0.94 µM; at BaF3-BCR/ABL-T315I it was above 10 µM; at BaF3-TEL-TIE1 it was 9.29 µM; on BaF3-TEL-LYN, above 10 µM; at BaF3-EML4-ALK, above 10 µM. For the same compound, the IC50 in the assay on BaF3-KRASD12 was above 10 µM; with BaF3-NRASD12 it was above 10 µM; in the assay with Wt-BaF3, 29.3 µM.
For `COc1ccc(NC(=O)c2cccc(C(F)(F)F)c2)cc1N1Cc2cnc(Nc3ccc(C)nc3)nc2N(C)C1` [IC-6, N-(4-methoxy-3-(1-methyl-7-((6-methylpyridin-3-yl)amino)-1,4-dihydropyrimido[4,5-d]pyrimidin-3(2H)-yl)phenyl)-3-(trifluoromethyl)benzamide], the GI50 at BaF3-BCR/ABL was 0.387 µM; at BaF3-BCR/ABL-T315I, 8 µM; at BaF3-TEL-TIE1 it was 5.18 µM; at BaF3-TEL-LYN, around 8.23 µM; at BaF3-EML4-ALK, around 9.03 µM. Further, the values for the IC50 in the assay on BaF3-KRASD12, with BaF3-NRASD12 and in the assay on Wt-BaF3 were 10.3 µM, 8.15 µM and 22.8 µM, respectively.
On to `Cc1ccc(Nc2ncc3c(n2)N(C)CN(c2cc(NC(=O)c4cccc(C(F)(F)F)c4)ccc2Cl)C3)cn1` [IC-7, N-(4-chloro-3-(1-methyl-7-((6-methylpyridin-3-yl)amino)-1,4-dihydropyrimido[4,5-d]pyrimidin-3(2H)-yl)phenyl)-3-(trifluoromethyl)benzamide], for which the GI50 is 9 µM on BaF3-BCR/ABL; above 10 µM at BaF3-BCR/ABL-T315I; 6.85 µM on BaF3-TEL-TIE1; 5.34 µM at BaF3-TEL-LYN; 9.73 µM at BaF3-EML4-ALK.
In the case of `CN1CN(c2ccc(Cl)c(C(F)(F)F)c2)Cc2cnc(Nc3ccc(N4CCOCC4)nc3)nc21` [ID-1, 6-(4-chloro-3-(trifluoromethyl)phenyl)-8-methyl-N-(6-morpholinopyridin-3-yl)-5,6,7,8-tetrahydropyrimido[4,5-d]pyrimidin-2-amine], the GI50 on BaF3-BCR/ABL-T315I, on BaF3-TEL-TIE1, on BaF3-TEL-LYN and at BaF3-EML4-ALK was above 10 µM in each case.
Regarding `Cc1ccc(Nc2ncc3c(n2)N(C)CN(c2cc(C(=O)Nc4cccc(C(F)(F)F)c4)ccc2C)C3)cn1` [IC-1, 4-methyl-3-(1-methyl-7-((6-methylpyridin-3-yl)amino)-1,4-dihydropyrimido[4,5-d]pyrimidin-3(2H)-yl)-N-(3-(trifluoromethyl)phenyl)benzamide], the GI50 at BaF3-BCR/ABL came to 0.00693 µM; at BaF3-BCR/ABL-T315I, 0.196 µM; on BaF3-TEL-TIE1 it was 0.0912 µM; on BaF3-TEL-LYN, 0.189 µM; at BaF3-EML4-ALK it was 1.65 µM. Also, the IC50 with BaF3-KRASD12 is 1.69 µM; with BaF3-NRASD12, 1.57 µM; in the assay on Wt-BaF3, 5.36 µM.
Turning to `Cc1ccc(NC(=O)c2cccc(C(F)(F)F)c2)cc1N1Cc2cnc(NCCN3CCOCC3)nc2N(C)C1` [IA-5, N-(4-methyl-3-(1-methyl-7-((2-morpholinoethyl)amino)-1,4-dihydropyrimido[4,5-d]pyrimidin-3(2H)-yl)phenyl)-3-(trifluoromethyl)benzamide], the GI50 on BaF3-BCR/ABL was 1.72 µM; at BaF3-BCR/ABL-T315I, 2.92 µM; at BaF3-TEL-TIE1, 3.24 µM; on BaF3-TEL-LYN, 2.14 µM; at BaF3-EML4-ALK, 4.05 µM. The figures for the IC50 in the assay with BaF3-KRASD12, in the assay with BaF3-NRASD12 and in the assay with Wt-BaF3 were 3.44 µM, 3.29 µM and 6.3 µM, respectively.
For the compound `Cc1ccc(C(F)(F)F)cc1N1Cc2cnc(Nc3ccc(N4CCOCC4)nc3)nc2N(C)C1` [ID-4, 8-methyl-6-(2-methyl-5-(trifluoromethyl)phenyl)-N-(6-morpholinopyridin-3-yl)-5,6,7,8-tetrahydropyrimido[4,5-d]pyrimidin-2-amine], the GI50 at BaF3-BCR/ABL is 1.63 µM; at BaF3-BCR/ABL-T315I it was above 10 µM; at BaF3-TEL-TIE1, 4.43 µM; at BaF3-TEL-LYN, 4.29 µM; at BaF3-EML4-ALK, 8.24 µM.
Turning to `CN1CN(c2cccc(C(F)(F)F)c2)Cc2cnc(Nc3ccc(N4CCOCC4)nc3)nc21` [ID-5, 8-methyl-N-(6-morpholinopyridin-3-yl)-6-(3-(trifluoromethyl)phenyl)-5,6,7,8-tetrahydropyrimido[4,5-d]pyrimidin-2-amine], the GI50 was above 10 µM on BaF3-BCR/ABL-T315I, 6.17 µM at BaF3-TEL-TIE1, 15 µM on BaF3-TEL-LYN and above 10 µM on BaF3-EML4-ALK.
For `CN1CN(c2ccc(F)c(Cl)c2)Cc2cnc(Nc3ccc(N4CCOCC4)nc3)nc21` [ID-2, 6-(3-chloro-4-fluorophenyl)-8-methyl-N-(6-morpholinopyridin-3-yl)-5,6,7,8-tetrahydropyrimido[4,5-d]pyrimidin-2-amine], the GI50 is above 10 µM on BaF3-BCR/ABL; above 10 µM at BaF3-BCR/ABL-T315I; 11.8 µM at BaF3-TEL-TIE1; 20.5 µM at BaF3-TEL-LYN; above 10 µM on BaF3-EML4-ALK.
With `Cc1ccc(N)cc1N1Cc2cnc(Nc3ccc(N4CCOCC4)nc3)nc2N(C)C1` [ID-6, 6-(5-amino-2-methylphenyl)-8-methyl-N-(6-morpholinopyridin-3-yl)-5,6,7,8-tetrahydropyrimido[4,5-d]pyrimidin-2-amine], the GI50 was 0.353 µM on BaF3-BCR/ABL; above 10 µM at BaF3-BCR/ABL-T315I; 0.809 µM on BaF3-TEL-TIE1; 2.31 µM at BaF3-TEL-LYN; above 10 µM at BaF3-EML4-ALK.
Regarding `Cc1ccc(NC(=O)c2cccc(C(F)(F)F)c2)cc1N1Cc2cnc(Nc3ccc(N4CCN(C)CC4)nc3)nc2N(C)C1` [IA-14, N-(4-methyl-3-(1-methyl-7-((6-(4-methylpiperazin-1-yl)pyridin-3-yl)amino)-1,4-dihydropyrimido[4,5-d]pyrimidin-3(2H)-yl)phenyl)-3-(trifluoromethyl)benzamide], the IC50 with BaF3-KRASD12 amounted to 1.46 µM; in the assay on BaF3-NRASD12, 1.53 µM; in the assay on Wt-BaF3, 3.67 µM.
In the case of `CN1CN(c2ccc(Br)cc2F)Cc2cnc(Nc3ccc(N4CCOCC4)nc3)nc21` [ID-3, 6-(4-bromo-2-fluorophenyl)-8-methyl-N-(6-morpholinopyridin-3-yl)-5,6,7,8-tetrahydropyrimido[4,5-d]pyrimidin-2-amine], the GI50 at BaF3-BCR/ABL was above 10 µM; at BaF3-BCR/ABL-T315I, above 10 µM; at BaF3-TEL-TIE1 it was 4.55 µM; on BaF3-TEL-LYN, 7.27 µM; at BaF3-EML4-ALK, 20 µM.

In general, IC50 refers to the concentration needed to halve the response being measured.
